Results from patent US20250353873A1, “COMPOUNDS AND METHODS FOR MODULATING APOE EXPRESSION” (Ionis Pharmaceuticals, Inc., priority 2024, published 2025).
Strand notation (5' to 3'): a small letter for the sugar, then the base; units joined by * are phosphorothioate-linked, units joined directly phosphodiester-linked; [ ] holds rarer units or linkages, { } end groups; capitals alone tell only the bases. [ms] = mesyl phosphoramidate linkage; e = 2'-O-(2-methoxyethyl) (MOE); k = constrained ethyl (cEt); [5mC] = 5-methylcytosine; d = 2'-deoxy (DNA)

Assays:
[1] = system: human APOE RNA; experiment: Dose-dependent inhibition of human APOE RNA in HepG2 cells, electroporation, 50,000 cells per well, RT-PCR normalized to GAPDH (Example 4, Tables 8-10); format: cell-based; conditions: HepG2, electroporation, 16-hour treatment
Procedure, shortened: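 HepG2 cells, 50,000 per well, electroporated with modified oligonucleotide at various concentrations. APOE RNA quantified by RT-PCR with human primer probe set RTS3073, normalized to GAPDH. Values are percent APOE RNA relative to untreated control cells.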

[2] = system: human APOE RNA; experiment: Activity in APOE C57BL/6NTac-Apoeem7250 knock-in mice, single ICV bolus, 20 weeks (Example 13); format: in vivo; conditions: single ICV bolus 300 μg, 20 weeks post treatment, normalized to mouse Ppia
Procedure: (§1) Modified oligonucleotides described above were tested in the APOE C57BL/6NTac-Apoeem7250 knock-in mouse model described above.
APOE C57BL/6NTac-Apoeem7250 knock-in mice were divided into groups of 4 mice each. Each mouse received a single ICV bolus of 300 μg of modified oligonucleotide. A group of 2-4 mice received a single ICV bolus with PBS as a negative control.
(§2) Twenty weeks post treatment, mice were sacrificed and RNA was extracted from cortical brain tissue and spinal cord for quantitative real-time RT-PCR analysis of RNA expression of APOE using human primer probe set RTS3073 (described herein above). APOE RNA levels were normalized to mouse Ppia. Mouse Ppia was amplified using primer probe set m_cyclo24 (described herein above). Results are presented as percent human APOE RNA relative to the amount of human APOE RNA in PBS treated animals, (% control). Each experiment is identified in separate tables below.

[3] = system: human APOE RNA; experiment: Dose-dependent inhibition of human APOE RNA in HepG2 cells, electroporation, 24 hours (Example 6); format: cell-based
Procedure, shortened: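 HepG2 cells, 50,000 per well, electroporated with various oligonucleotide concentrations. APOE RNA measured with primer probe set RTS3073, normalized to GAPDH (RTS104), expressed as % of untreated control; IC50 then calculated.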

[4] = system: human APOE RNA; experiment: Activity in APOE C57BL/6NTac-Apoeem7250 knock-in mice, single ICV bolus, 4 weeks (Example 10); format: in vivo; conditions: C57BL/6NTac-Apoeem7250 knock-in mice, single ICV bolus 300 μg, 4 weeks (Table 22)
Procedure: as §1
APOE C57BL/6NTac-Apoeem7250 knock-in mice were divided into groups of 2-4 mice each. Each mouse received a single ICV bolus of 300 μg of modified oligonucleotide. A group of 3-4 mice received a single ICV bolus with PBS as a negative control.
as §2, with “Four” for “Twenty”

[5] = system: human APOE RNA; experiment: Activity in APOE C57BL/6NTac-Apoeem7250 knock-in mice, single ICV bolus, 16 weeks (Example 12); format: in vivo; conditions: single ICV bolus 300 μg, 16 weeks post treatment, normalized to mouse Ppia
Procedure, shortened: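 Knock-in mice (3-4 per group) received one ICV bolus of 300 μg oligonucleotide, PBS as control. After 16 weeks, human APOE RNA in cortex and spinal cord measured by RT-qPCR, normalized to mouse Ppia, and reported as % of PBS control.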

Substance | APOE RNA (% control) Cortex [2] [% control] | APOE RNA (% control) Spinal Cord [2] [% control] | IC50 [3] [µM] | APOE RNA (% UTC) ([3]; 5 nM) | APOE RNA (% UTC) ([3]; 13 nM) | APOE RNA (% UTC) ([3]; 33 nM) | APOE RNA (% UTC) ([3]; 82 nM) | APOE RNA (% UTC) ([3]; 205 nM) | APOE RNA (% UTC) ([3]; 512 nM) | APOE RNA (% UTC) ([3]; 1,280 nM) | APOE RNA (% UTC) ([3]; 3,200 nM) | APOE RNA (% UTC) ([3]; 8,000 nM) | APOE RNA (% UTC) ([3]; 20,000 nM) | APOE RNA (% control) Cortex [4] [% control] | APOE RNA (% control) Spinal Cord [4] [% control] | APOE RNA (% control) Cortex [5] [% control] | APOE RNA (% control) Spinal Cord [5] [% control] | also measured
1757559: mixed MOE/cEt gapmer TTGGTGAATCTTTATTAA, sugar eeeekddddddddkeeee, linkages soossssssssssooss (eT*eTeGeG*kT*dG*dA*dA*dT*d[5mC]*dT*dT*dT*kAeTeT*eA*eA) [compound 1757559] | 94 | 69 | – | – | – | – | – | – | – | – | – | – | – | – | – | – | – | APOE RNA (% UTC) ([1]; 5 nM): 90 % UTC; APOE RNA (% UTC) ([1]; 13 nM): 80 % UTC; APOE RNA (% UTC) ([1]; 33 nM): 89 % UTC; APOE RNA (% UTC) ([1]; 82 nM): 87 % UTC; APOE RNA (% UTC) ([1]; 205 nM): 81 % UTC; APOE RNA (% UTC) ([1]; 512 nM): 89 % UTC; APOE RNA (% UTC) ([1]; 1,280 nM): 60 % UTC; APOE RNA (% UTC) ([1]; 3,200 nM): 42 % UTC; APOE RNA (% UTC) ([1]; 8,000 nM): 39 % UTC; APOE RNA (% UTC) ([1]; 20,000 nM): 25 % UTC; IC50 [1]: 3.11 µM
1757561: mixed MOE/cEt gapmer TTGGTGAATCTTTATTAA, sugar eeekkddddddddkeeee, linkages soossssssssssooss (eT*eTeGkG*kT*dG*dA*dA*dT*d[5mC]*dT*dT*dT*kAeTeT*eA*eA) [compound 1757561] | 92 | 64 | – | – | – | – | – | – | – | – | – | – | – | – | – | – | – | APOE RNA (% UTC) ([1]; 5 nM): 96 % UTC; APOE RNA (% UTC) ([1]; 13 nM): 191 % UTC; APOE RNA (% UTC) ([1]; 33 nM): 240 % UTC; APOE RNA (% UTC) ([1]; 82 nM): 104 % UTC; APOE RNA (% UTC) ([1]; 205 nM): 130 % UTC; APOE RNA (% UTC) ([1]; 512 nM): 71 % UTC; APOE RNA (% UTC) ([1]; 1,280 nM): 45 % UTC; APOE RNA (% UTC) ([1]; 3,200 nM): 38 % UTC; APOE RNA (% UTC) ([1]; 8,000 nM): 35 % UTC; APOE RNA (% UTC) ([1]; 20,000 nM): 12 % UTC; IC50 [1]: 2.09 µM
1779701 (e[5mC]*eTeT*kG*kG*dT[ms]dG[ms]dA[ms]dA[ms]dT*d[5mC]*dT*dT*dT*dA[ms]dT*eT*eA*eA*eA; antisense) [Compound 1779701] | 56 | 24 | – | – | – | – | – | – | – | – | – | – | – | – | – | – | – | –
1736492 (e[5mC]*eTeT*eG*eG*eT*dG[ms]dA[ms]dA[ms]dT*d[5mC]*dT*dT*dT*dA[ms]dT*kT*eA*eA*eA; antisense) [Compound 1736492] | – | – | 0.94 | 95 | 87 | 76 | 82 | 71 | 52 | 52 | 41 | 15 | 20 | 45 | 46 | 53 | 52 | –
1736514 (e[5mC]*eTeT*eG*kG*kT*dG[ms]dA[ms]dA[ms]dT*d[5mC]*dT*dT*dT*dA[ms]dT*eT*eA*eA*eA; antisense) [Compound 1736514] | – | – | 0.67 | 121 | 123 | 96 | 77 | 80 | 46 | 33 | 25 | 23 | 6 | 28 | 54 | 39 | 16 | –
1757585 (eT*eTeGkGkT*dG*dA*dA*dT*d[5mC]*dT*dT*dT*dA*dT*kTeAeA*eA*e[5mC]; antisense) [Compound 1757585] | 62 | 61 | – | – | – | – | – | – | – | – | – | – | – | – | – | – | – | APOE RNA (% UTC) ([1]; 5 nM): 45 % UTC; APOE RNA (% UTC) ([1]; 13 nM): 49 % UTC; APOE RNA (% UTC) ([1]; 33 nM): 44 % UTC; APOE RNA (% UTC) ([1]; 82 nM): 38 % UTC; APOE RNA (% UTC) ([1]; 205 nM): 33 % UTC; APOE RNA (% UTC) ([1]; 512 nM): 53 % UTC; APOE RNA (% UTC) ([1]; 1,280 nM): 19 % UTC; APOE RNA (% UTC) ([1]; 3,200 nM): 32 % UTC; APOE RNA (% UTC) ([1]; 8,000 nM): 12 % UTC; APOE RNA (% UTC) ([1]; 20,000 nM): 1 % UTC; IC50 [1]: 0.01 µM
1779970 (e[5mC]*eTeTkG*kG*eT*dG[ms]dA[ms]dA*dT*d[5mC]*dT*dT*dT*dA*dT*eT*eA*eA*eA; antisense) [Compound 1779970] | 63 | 35 | – | – | – | – | – | – | – | – | – | – | – | – | – | – | – | –
1736534 (e[5mC]*eT*eT*eG*eGeT*dG[ms]dA[ms]dA[ms]dT*d[5mC]*dT*dT*dT*dA[ms]dT*kT*kA*eA*eA; antisense) [Compound 1736534] | – | – | 0.89 | 99 | 110 | 93 | 103 | 65 | 50 | 45 | 24 | 19 | 25 | 31 | 55 | 46 | 34 | –
1757583 (eT*eTeGeGeT*dG*dA*dA*dT*d[5mC]*dT*dT*dT*dA*dT*kTeAeA*eA*e[5mC]; antisense) [Compound 1757583] | 97 | 100 | – | – | – | – | – | – | – | – | – | – | – | – | – | – | – | –
1757584 (eT*eTeGeGeT*dG*dA*dA*dT*d[5mC]*dT*dT*dT*dA*dT*kTkAeA*eA*e[5mC]; antisense) [Compound 1757584] | 92 | 95 | – | – | – | – | – | – | – | – | – | – | – | – | – | – | – | –
1736529 (e[5mC]*eT*eT*eG*eG*eTdG[ms]dA[ms]dA[ms]dT*d[5mC]*dT*dT*dT*dA[ms]dT*kT*kA*eA*eA; antisense) [Compound 1736529] | – | – | 1.12 | 92 | 102 | 92 | 115 | 75 | 56 | 45 | 29 | 13 | 30 | 51 | 46 | 60 | 28 | –
1736536 (e[5mC]*eT*eT*eG*kGkT*dG[ms]dA[ms]dA[ms]dT*d[5mC]*dT*dT*dT*dA[ms]dT*eT*eA*eA*eA; antisense) [Compound 1736536] | – | – | 0.62 | 97 | 102 | 79 | 79 | 63 | 58 | 43 | 25 | 9 | 6 | 31 | 53 | 36 | 31 | –
